These results are taken from patent US9796726B2, “Dihydroquinoline pyrazolyl compounds” (Hoffmann-La Roche Inc., priority 2014, dated 2017).

As a reminder, the EC50 is the concentration that produces a half-maximal response. A high value points to lower potency in that assay.

Assay [1] concerns the target T1, human CYP11B1 (Homo sapiens, UniProt P15538).
T1 construct: The expression plasmids contains the ORF for either human/cyno CYP11B1 or CYP11B2; expressed in transfected cells
T1 sequence (P15538 25-503): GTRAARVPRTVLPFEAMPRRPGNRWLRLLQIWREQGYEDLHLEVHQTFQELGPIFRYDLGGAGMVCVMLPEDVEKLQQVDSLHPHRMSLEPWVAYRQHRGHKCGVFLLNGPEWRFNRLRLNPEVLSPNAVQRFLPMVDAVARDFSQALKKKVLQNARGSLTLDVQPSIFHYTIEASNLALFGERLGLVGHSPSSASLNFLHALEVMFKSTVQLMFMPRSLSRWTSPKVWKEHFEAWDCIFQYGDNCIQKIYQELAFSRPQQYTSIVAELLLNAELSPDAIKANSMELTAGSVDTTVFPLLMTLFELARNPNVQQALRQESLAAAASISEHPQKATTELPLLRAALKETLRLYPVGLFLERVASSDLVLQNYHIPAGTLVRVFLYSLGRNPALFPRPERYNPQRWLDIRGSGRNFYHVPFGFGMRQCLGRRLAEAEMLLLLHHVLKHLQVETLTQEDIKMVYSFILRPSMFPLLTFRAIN
In words: G-402 cellular enzyme assay, human CYP11B1 (cortisol release, HTRF). The note with it: stable G-402 cells expressing human CYP11B1; 1 μM Deoxycortisol; 16 h. Type of assay: cell-based. An excerpt: Herein we identified the use of the G-402 cell line as a host cell to ectopically express (transiently or stably) enzymes of the CYP11 family. Specifically we developed stable G-402 cells expressing ectopically human CYP11B1, human CYP11B2, human CYP11A1, cynmolgus CYP11B1 or cynomolgus CYP11B2 enzyme activity. Importantly the identified cell line G-402 expresses co-factors (adrenodoxin and adrenodoxin reductase) important for the activity of the CYP11 family and no relevant enzyme activity of the CYP11 family (in comparison to H295R cells) was detected in these cells. Therefore the G-402 cell line is uniquely suited as a host cell for the ectopic expression of enzymes from the CYP11 family.
G-402 cells can be obtained from ATCC (CRL-1440) and were originally derived from a renal leiomyoblastoma.
The expression plasmids contains the ORF for either human/cyno CYP11B1 or CYP11B2 under the control of a suitable promoter (CMV-promoter) and a suitable resistance marker (neomycin). Using standard techniques the expression plasmid is transfected into G-402 cells and these cells are then selected for expressing the given resistance markers. Individual cell-clones are then selected and assessed for displaying the desired enzymatic activity using 11-Deoxycorticosterone (Cyp11B2) or 11-Deoxycortisol (Cyp11B1) as a substrate.
G-402 cells expressing CYP11 constructs were established as described above and maintained in McCoy's 5a Medium Modified, ATCC Catalog No. 30-2007 containing 10% FCS and 400 μg/ml G418 (Geneticin) at 37° C. under an atmosphere of 5% CO2/95% air. Cellular enzyme assays were performed in DMEM/F12 medium containing 2.5% charcoal treated FCS and appropriate concentration of substrate (0.3-10 uM 11-Deoxycorticosterone, 11-Deoxycortisol or Corticosterone). For assaying enzymatic activity, cells were plated onto 96 well plates and incubated for 16 h. An aliquot of the supernatant is then transferred and analyzed for the concentration of the expected product (Aldosterone for CYP11B2; Cortisol for CYP11B1). The concentrations of these steroids can be determined using HTRF assays from CisBio analyzing either Aldosterone or Cortisol.
Inhibition of the release of produced steroids can be used as a measure of the respective enzyme inhibition by test compounds added during the cellular enzyme assay. The dose dependent inhibition of enzymatic activity by a compound is calculated by means of plotting added inhibitor concentrations (x-axes) vs. measured steroid/product level (y-axes). The inhibition is then calculated by fitting the following 4-parameter sigmoidal function (Morgan-Mercer-Flodin (MMF) model) to the raw data points using the least squares method:
[formula] wherein, A is the maximum y value, B is the EC50 factor determined using XLFit, C is the minimum y value and D is the slope value.
EC50 values for compounds claimed herein were tested with the G402-based assay system described. Cyp11B2 enzyme activity was tested in presence of 1 μM Deoxycorticosterone and variable amounts of inhibitors; Cyp11B1 enzyme activity was tested in presence of 1 μM Deoxycortisol and variable amounts of inhibitors.
(In general: TR-FRET usually uses a lanthanide donor and a delayed reading to cut background.)

For assay [2], the target named is CYP11B2 (Homo sapiens, UniProt P19099). The settings on record: patients with primary aldosteronism, cited from earlier work.
For assay [3] the following is noted: rat, cited from earlier work; for plasma aldosterone: FAD286 following 4 weeks of treatment, spironolactone at 4 and 8 weeks.

Structures are written as SMILES. A value given as a limit tells only on which side of the number the result lay.

Sequence of CYP11B2 (P19099 25-503): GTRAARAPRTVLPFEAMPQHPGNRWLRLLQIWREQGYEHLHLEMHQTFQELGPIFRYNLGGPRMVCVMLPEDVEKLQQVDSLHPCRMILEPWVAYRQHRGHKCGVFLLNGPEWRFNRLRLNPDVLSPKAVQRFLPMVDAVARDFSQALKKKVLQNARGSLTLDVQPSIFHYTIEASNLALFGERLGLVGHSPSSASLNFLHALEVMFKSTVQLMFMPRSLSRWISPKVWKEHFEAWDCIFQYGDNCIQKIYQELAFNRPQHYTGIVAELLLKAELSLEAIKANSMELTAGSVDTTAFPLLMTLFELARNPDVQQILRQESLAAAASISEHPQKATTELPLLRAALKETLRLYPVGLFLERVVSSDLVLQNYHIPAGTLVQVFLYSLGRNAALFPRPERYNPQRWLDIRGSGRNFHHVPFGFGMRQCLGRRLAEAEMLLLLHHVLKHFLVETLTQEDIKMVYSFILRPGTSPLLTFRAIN

For the compound `CN1C(=O)CCc2cc(-c3[nH]ncc3CN3CC4(C3)CN(C(=O)c3nccn3C)C4)ccc21` [Example 63, 1-Methyl-6-[4-[[2-(1-methylimidazole-2-carbonyl)-2,6-diazaspiro[3.3]heptan-6-yl]methyl]-1H-pyrazol-3-yl]-3,4-dihydroquinolin-2-one], the concentration giving a half-maximal response (EC50) in assay [1] was above 30 nM. Compound `CCS(=O)(=O)N1CC2(CN(Cc3cn[nH]c3-c3ccc4c(c3)CCC(=O)N4C)C2)C1` [Example 56, 6-[4-[(2-Ethylsulfonyl-2,6-diazaspiro[3.3]heptan-6-yl)methyl]-1H-pyrazol-3-yl]-1-methyl-3,4-dihydroquinolin-2-one] yielded an EC50 in assay [1] above 30 nM. The same measure, in the same setting: next, `CN1C(=O)CCc2c1ccc(-c1n[nH]cc1CN1CC3(C1)CN(C(=O)c1cnn(C)c1)C3)c2Cl` [Example 53, 5-Chloro-1-methyl-6-[4-[[2-(1-methylpyrazole-4-carbonyl)-2,6-diazaspiro[3.3]heptan-6-yl]methyl]-1H-pyrazol-3-yl]-3,4-dihydroquinolin-2-one]: above 30 nM; `CC(=O)N1CCN(Cc2c[nH]nc2-c2ccc3c(c2)CCC(=O)N3C)C[C@H]1C` [Example 49, (−)-6-[4-[[(3R)-4-Acetyl-3-methyl-piperazin-1-yl]methyl]-1H-pyrazol-3-yl]-1-methyl-3,4-dihydroquinolin-2-one]: above 30 nM. For the compound `CCS(=O)(=O)N1CC2(CN(Cc3cn[nH]c3-c3cc(Cl)c4c(c3)CCC(=O)N4C)C2)C1` [Example 62, 8-Chloro-6-[4-[(2-ethylsulfonyl-2,6-diazaspiro[3.3]heptan-6-yl)methyl]-1H-pyrazol-3-yl]-1-methyl-3,4-dihydroquinolin-2-one], the EC50 in assay [1] is above 30 nM. On to `CN1C(=O)CCc2cc(-c3[nH]ncc3CN3CC4(C3)CN(C(=O)c3ncccc3Cl)C4)ccc21` [Example 64, 6-[4-[[2-(3-Chloropyridine-2-carbonyl)-2,6-diazaspiro[3.3]heptan-6-yl]methyl]-1H-pyrazol-3-yl]-1-methyl-3,4-dihydroquinolin-2-one], for which the concentration giving a half-maximal response (EC50) in assay [1] is above 30 nM. In assay [1], `CCS(=O)(=O)N1CC2(CN(Cc3c[nH]nc3-c3ccc4c(c3Cl)CCC(=O)N4C)C2)C1` [Example 54, 5-Chloro-6-[4-[(2-ethylsulfonyl-2,6-diazaspiro[3.3]heptan-6-yl)methyl]-1H-pyrazol-3-yl]-1-methyl-3,4-dihydroquinolin-2-one] registered an EC50 above 30 nM. `N#Cc1ccc([C@H]2CCc3cncn32)c(F)c1` [LCI699]: in assay [2], the blood pressure result was “mildly decreased”, the hypokalemia result is on record as “corrected” and the “selectivity (effects on the glucocorticoid axis)” value is on record as “poor selectivity”. In assay [2] (oral), the circulating aldosterone levels entry is on record as “significantly lower”. In assay [1], `CC(=O)N1CC2(CN(Cc3cn[nH]c3-c3ccc4c(c3Cl)CCC(=O)N4C)C2)C1` [Example 59, 6-[4-[(2-Acetyl-2,6-diazaspiro[3.3]heptan-6-yl)methyl]-1H-pyrazol-3-yl]-5-chloro-1-methyl-3,4-dihydroquinolin-2-one] returned an EC50 above 30 nM. As to `N#Cc1ccc(C2CCCc3cncn32)cc1` (centres unmarked) [FAD286], the plasma aldosterone entry in assay [3] is listed as “reduced”. As to `CN1C(=O)CCc2cc(-c3[nH]ncc3CN3CC4(C3)CN(C(=O)c3cnn(C)c3)C4)cc(Cl)c21` [Example 60, 8-Chloro-1-methyl-6-[4-[[2-(1-methylpyrazole-4-carbonyl)-2,6-diazaspiro[3.3]heptan-6-yl]methyl]-1H-pyrazol-3-yl]-3,4-dihydroquinolin-2-one], the EC50 in assay [1] was above 30 nM. `CN1C(=O)CCc2cc(-c3n[nH]cc3CN3CCN(C(=O)c4cnn(C)c4)CC3)cc(Cl)c21` [Example 44, 8-Chloro-1-methyl-6-[4-[[4-(1-methylpyrazole-4-carbonyl)piperazin-1-yl]methyl]-1H-pyrazol-3-yl]-3,4-dihydroquinolin-2-one] registered an EC50 in assay [1] above 30 nM. In the case of `CC(=O)S[C@@H]1CC2=CC(=O)CC[C@]2(C)[C@H]2CC[C@@]3(C)[C@@H](CC[C@@]34CCC(=O)O4)[C@H]12` [spironolactone], in assay [3], the plasma aldosterone result is on record as “increased”; the “angiotensin II and salt-stimulated PAI-1 mRNA expression in the aorta and the heart” value is on record as “enhanced”.
